The source of these data is ChEMBL document CHEMBL1201862, “PubChem BioAssay data set” (2004).

The structures appear in SMILES notation. Several values for one entry are separate records, joined by “and”; a condition that tells them apart may be missing. Equal values may be shown once. Activity calls are given as the source filed them. Some results are limits rather than exact numbers.

The target in experiment [1] is Nonstructural protein 1 (Influenza A virus, UniProt Q194T2). The format is functional, Influenza A virus (A/California/07/2009(H1N1)).
Experiment [2] relates to Vero. Description: Vero E6 cell cytotoxicity, dose response, cytotoxicity control (AID 540298). The format is functional. The following applies: Chlorocebus sabaeus.
In experiment [3] the test system is MDCK. Description: MDCK cell cytotoxicity, dose response, cytotoxicity control (AID 540296). The format is functional. The following applies: Canis lupus familiaris.
Experiment [4] deals with MDCK. Description: antiviral activity against H1N1 influenza, dose response, cell-based, strain KY136 (AID 540257). It is filed as functional. The following applies: Canis lupus familiaris.
In experiment [5] the target is T1, Endoribonuclease toxin MazF (Escherichia coli K-12, UniProt P0AE70).
T1 sequence (P0AE70 whole entry): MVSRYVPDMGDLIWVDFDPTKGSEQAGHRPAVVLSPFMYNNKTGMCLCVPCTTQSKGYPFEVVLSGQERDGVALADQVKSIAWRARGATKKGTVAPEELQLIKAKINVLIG
Description: MazF endoribonuclease activators, SAR follow-up, biochemical, fluorescence, single-stranded RNA substrate (AID 588603). The format is functional.

The target of experiment [6] is T1, Endoribonuclease toxin MazF. Description: MazF toxin RNase activators, dose response, biochemical, fluorescence, single-stranded RNA substrate, uHTS hits (AID 588481). The format is functional.
The subject of experiment [7] is MEF. Description: SAR analysis of small molecule cytotoxicity of MazEF TA System activators in embryonic fibroblast (MEF) cells. [Related pubchem assays (depositor defined):AID504720, AID504743]. The format is functional. To be noted: Mus musculus.
The target of experiment [8] is T1, Endoribonuclease toxin MazF. Description: SAR analysis of small molecule activators of the MazEF TA System via a fluorescence-based single-stranded RNase assay counterscreen. [Related pubchem assays (depositor defined):AID504720, AID504743]. The format is functional.
The target is the same in experiment [9]. Description: fluorescent RNA oligo signal without MazF, dose response, counter-screen for MazEF activator project, biochemical, fluorescence, single-stranded RNase substrate (AID 588502). The format is functional.
In experiment [10] the target is T2, Sentrin-specific protease 8 (Homo sapiens, UniProt Q96LD8).
T2 sequence (Q96LD8 whole entry): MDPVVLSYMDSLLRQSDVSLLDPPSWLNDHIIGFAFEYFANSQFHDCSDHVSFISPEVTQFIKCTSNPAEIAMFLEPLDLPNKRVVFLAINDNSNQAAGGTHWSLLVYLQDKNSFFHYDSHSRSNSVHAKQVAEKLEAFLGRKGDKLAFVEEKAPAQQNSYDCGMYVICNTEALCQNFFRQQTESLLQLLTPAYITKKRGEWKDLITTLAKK
Description: SENP8 protease inhibitors, SAR follow-up, biochemical, luminescence (AID 504501). The format is functional.

The target in experiment [11] is T3, Caspase-3 (Homo sapiens, UniProt P42574).
T3 sequence (P42574 whole entry): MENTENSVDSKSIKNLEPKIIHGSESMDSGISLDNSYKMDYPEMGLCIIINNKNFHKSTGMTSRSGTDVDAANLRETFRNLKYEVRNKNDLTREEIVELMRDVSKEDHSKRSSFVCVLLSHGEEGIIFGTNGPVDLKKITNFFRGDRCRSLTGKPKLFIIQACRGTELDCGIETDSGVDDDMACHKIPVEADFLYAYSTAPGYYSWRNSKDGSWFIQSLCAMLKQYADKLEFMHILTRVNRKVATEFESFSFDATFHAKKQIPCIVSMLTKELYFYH
Description: caspase-3 inhibitors as off-family protease, SAR follow-up, selectivity assay for SENP protease inhibitor project, biochemical, luminescence, set 2 (AID 588599). It is filed as functional.

Experiment [12] addresses T2, Sentrin-specific protease 8. Description: SENP8 protease inhibitors, SAR follow-up, biochemical, luminescence, set 2 (AID 588601). It is filed as functional.
Experiment [13] has as its target T3, Caspase-3. Description: SAR Analysis of small molecule inhibitors of Sentrin-specific proteases (SENPs) using a Caspase-3 Selectivity assay. [Related pubchem assays (depositor defined):AID2540, AID2599, AID434973, AID489001]. The format is functional.
For experiment [14], the target named is T4, Sentrin-specific protease 7 (Homo sapiens, UniProt Q9BQF6).
T4 sequence (Q9BQF6 whole entry): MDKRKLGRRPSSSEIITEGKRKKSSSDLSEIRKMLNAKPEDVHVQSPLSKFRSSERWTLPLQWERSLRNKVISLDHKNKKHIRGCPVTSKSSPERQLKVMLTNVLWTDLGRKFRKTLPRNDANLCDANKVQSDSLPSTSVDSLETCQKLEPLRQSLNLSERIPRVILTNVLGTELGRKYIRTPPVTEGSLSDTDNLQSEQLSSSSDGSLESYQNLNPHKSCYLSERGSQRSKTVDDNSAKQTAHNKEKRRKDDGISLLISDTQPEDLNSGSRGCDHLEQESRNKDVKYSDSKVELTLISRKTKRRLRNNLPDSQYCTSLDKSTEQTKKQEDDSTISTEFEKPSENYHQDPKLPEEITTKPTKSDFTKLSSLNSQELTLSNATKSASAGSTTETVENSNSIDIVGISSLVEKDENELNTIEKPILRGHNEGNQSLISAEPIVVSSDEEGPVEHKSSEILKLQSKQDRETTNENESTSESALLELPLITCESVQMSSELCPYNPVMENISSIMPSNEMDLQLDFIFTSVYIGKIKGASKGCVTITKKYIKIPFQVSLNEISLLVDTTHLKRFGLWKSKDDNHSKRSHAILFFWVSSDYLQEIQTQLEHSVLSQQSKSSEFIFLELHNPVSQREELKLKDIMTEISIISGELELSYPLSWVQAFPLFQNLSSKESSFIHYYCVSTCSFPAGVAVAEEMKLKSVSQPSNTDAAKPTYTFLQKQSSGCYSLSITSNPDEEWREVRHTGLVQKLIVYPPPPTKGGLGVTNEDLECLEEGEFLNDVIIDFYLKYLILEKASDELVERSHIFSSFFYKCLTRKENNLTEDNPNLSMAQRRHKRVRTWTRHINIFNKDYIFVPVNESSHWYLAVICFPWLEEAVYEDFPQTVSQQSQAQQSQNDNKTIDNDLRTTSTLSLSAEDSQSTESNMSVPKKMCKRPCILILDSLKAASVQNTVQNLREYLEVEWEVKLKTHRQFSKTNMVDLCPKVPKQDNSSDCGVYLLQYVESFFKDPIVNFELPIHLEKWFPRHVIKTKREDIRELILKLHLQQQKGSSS
Description: SENP7 protease inhibitors, SAR follow-up, biochemical, luminescence, set 2 (AID 588600). The format is functional.

The target of experiment [15] is T5, Sentrin-specific protease 6 (Homo sapiens, UniProt Q9GZR1).
T5 sequence (Q9GZR1 whole entry): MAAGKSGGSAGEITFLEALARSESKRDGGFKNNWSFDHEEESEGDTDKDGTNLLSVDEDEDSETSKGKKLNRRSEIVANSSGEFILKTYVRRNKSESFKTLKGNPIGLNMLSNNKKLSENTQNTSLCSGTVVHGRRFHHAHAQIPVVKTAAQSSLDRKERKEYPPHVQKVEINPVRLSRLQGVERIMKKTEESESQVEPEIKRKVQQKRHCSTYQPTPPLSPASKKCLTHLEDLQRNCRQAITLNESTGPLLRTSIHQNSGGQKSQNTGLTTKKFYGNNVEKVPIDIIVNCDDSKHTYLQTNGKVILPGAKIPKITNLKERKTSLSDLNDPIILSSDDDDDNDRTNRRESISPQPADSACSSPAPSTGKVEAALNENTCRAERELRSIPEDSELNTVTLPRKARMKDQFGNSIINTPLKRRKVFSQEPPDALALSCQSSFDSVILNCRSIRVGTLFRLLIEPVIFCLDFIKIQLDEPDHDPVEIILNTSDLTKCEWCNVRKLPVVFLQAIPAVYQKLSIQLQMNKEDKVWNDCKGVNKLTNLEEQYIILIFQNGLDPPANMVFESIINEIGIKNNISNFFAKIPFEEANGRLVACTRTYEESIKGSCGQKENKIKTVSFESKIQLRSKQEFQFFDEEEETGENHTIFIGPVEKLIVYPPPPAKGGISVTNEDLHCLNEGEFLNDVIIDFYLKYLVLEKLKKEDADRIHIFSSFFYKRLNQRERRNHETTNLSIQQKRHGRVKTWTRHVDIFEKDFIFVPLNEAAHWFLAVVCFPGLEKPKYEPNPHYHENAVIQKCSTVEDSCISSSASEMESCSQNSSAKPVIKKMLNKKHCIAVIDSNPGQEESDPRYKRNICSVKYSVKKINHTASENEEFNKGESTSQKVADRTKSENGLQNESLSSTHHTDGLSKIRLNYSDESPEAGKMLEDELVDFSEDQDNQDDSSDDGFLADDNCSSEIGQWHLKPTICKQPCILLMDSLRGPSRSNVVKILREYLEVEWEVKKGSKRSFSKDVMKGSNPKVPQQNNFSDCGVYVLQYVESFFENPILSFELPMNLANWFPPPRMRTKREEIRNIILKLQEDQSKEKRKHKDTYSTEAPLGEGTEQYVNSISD
Description: SAR Analysis of small molecule inhibitors of Sentrin-specific protease 6 (SENP6) using a Luminescent assay. [Related pubchem assays (depositor defined):AID2582, AID2599]. It is filed as functional.

The target of experiment [16] is T5, Sentrin-specific protease 6. Description: SENP6 protease inhibitors, SAR follow-up, biochemical, luminescence, set 2 (AID 588598). It is filed as functional.
Experiment [17] has as its target T4, Sentrin-specific protease 7. Description: SENP7 protease inhibitors, SAR follow-up, biochemical, luminescence (AID 504497). It is filed as functional.
The target of experiment [18] is Beta-adrenergic receptor kinase 1 (Homo sapiens, UniProt P25098). Description: aptamer displacement from bead-bound GRK2 – biochemical, cherry pick 1, bead flow cytometry, dose response (AID 504500).
For experiment [19], the target named is Hexokinase HKDC1 (Homo sapiens, UniProt Q2TB90). Description: HKDC1 hexokinase inhibitors, dose response, biochemical, W721R variant (AID 504729). The format is functional.
Experiment [20] deals with T6, Carboxy-terminal domain RNA polymerase II polypeptide A small phosphatase 1 (Homo sapiens, UniProt Q9GZU7).
T6 sequence (Q9GZU7 whole entry): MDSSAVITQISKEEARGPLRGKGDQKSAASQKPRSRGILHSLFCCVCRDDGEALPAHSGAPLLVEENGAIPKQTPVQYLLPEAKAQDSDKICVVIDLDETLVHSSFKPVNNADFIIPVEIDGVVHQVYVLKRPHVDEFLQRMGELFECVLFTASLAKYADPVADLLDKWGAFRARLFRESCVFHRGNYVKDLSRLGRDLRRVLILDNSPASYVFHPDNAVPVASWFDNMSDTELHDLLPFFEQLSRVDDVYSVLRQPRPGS
Description: inhibitors of CTDSP1, concentration-response testing, biochemical assay, absorbance-based, actives from ultra-high-throughput screening (AID 540297). The format is functional.

Experiment [21] deals with T7, Tyrosyl-DNA phosphodiesterase 2 (Homo sapiens, UniProt O95551).
T7 sequence (O95551 whole entry): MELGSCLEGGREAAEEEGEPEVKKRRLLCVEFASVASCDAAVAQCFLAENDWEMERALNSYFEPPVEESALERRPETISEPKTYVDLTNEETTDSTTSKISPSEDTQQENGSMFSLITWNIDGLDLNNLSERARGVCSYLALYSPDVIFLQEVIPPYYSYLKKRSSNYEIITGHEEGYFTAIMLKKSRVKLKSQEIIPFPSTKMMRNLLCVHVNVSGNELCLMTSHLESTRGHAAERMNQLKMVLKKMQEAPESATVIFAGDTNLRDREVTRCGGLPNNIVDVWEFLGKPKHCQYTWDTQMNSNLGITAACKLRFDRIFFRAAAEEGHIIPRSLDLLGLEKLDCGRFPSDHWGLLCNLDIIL
Description: human TDP2 enzyme inhibitors, dose response, biochemical, epi absorbance, IC50 (AID 743297).

Nonstructural protein 1, sequence (Q194T2 whole entry): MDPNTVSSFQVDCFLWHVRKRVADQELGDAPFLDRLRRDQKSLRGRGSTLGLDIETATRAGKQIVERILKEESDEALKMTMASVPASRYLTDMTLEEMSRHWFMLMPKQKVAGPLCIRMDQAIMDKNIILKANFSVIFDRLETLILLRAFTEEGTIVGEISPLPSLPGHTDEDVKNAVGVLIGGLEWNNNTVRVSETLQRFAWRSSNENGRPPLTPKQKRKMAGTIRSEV
Beta-adrenergic receptor kinase 1, sequence (P25098 whole entry): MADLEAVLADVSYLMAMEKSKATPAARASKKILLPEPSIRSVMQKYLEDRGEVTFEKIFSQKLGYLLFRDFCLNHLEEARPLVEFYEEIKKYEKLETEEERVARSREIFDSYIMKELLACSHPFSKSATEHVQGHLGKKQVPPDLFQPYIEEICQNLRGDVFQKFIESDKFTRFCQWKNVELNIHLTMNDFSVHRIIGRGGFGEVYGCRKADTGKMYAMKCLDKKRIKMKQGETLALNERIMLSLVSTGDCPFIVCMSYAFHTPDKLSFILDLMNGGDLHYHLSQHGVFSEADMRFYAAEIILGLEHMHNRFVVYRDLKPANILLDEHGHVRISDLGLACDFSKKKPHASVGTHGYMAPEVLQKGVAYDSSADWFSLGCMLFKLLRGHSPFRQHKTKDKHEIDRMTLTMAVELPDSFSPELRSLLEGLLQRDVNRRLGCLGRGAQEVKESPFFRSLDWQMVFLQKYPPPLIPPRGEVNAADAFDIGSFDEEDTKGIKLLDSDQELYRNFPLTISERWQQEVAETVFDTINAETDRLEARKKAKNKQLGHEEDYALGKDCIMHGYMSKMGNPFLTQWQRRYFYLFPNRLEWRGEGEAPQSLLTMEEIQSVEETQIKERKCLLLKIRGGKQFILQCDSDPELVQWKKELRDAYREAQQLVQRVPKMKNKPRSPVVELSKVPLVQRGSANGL
Hexokinase HKDC1, sequence (Q2TB90 whole entry, the tested form may be a part): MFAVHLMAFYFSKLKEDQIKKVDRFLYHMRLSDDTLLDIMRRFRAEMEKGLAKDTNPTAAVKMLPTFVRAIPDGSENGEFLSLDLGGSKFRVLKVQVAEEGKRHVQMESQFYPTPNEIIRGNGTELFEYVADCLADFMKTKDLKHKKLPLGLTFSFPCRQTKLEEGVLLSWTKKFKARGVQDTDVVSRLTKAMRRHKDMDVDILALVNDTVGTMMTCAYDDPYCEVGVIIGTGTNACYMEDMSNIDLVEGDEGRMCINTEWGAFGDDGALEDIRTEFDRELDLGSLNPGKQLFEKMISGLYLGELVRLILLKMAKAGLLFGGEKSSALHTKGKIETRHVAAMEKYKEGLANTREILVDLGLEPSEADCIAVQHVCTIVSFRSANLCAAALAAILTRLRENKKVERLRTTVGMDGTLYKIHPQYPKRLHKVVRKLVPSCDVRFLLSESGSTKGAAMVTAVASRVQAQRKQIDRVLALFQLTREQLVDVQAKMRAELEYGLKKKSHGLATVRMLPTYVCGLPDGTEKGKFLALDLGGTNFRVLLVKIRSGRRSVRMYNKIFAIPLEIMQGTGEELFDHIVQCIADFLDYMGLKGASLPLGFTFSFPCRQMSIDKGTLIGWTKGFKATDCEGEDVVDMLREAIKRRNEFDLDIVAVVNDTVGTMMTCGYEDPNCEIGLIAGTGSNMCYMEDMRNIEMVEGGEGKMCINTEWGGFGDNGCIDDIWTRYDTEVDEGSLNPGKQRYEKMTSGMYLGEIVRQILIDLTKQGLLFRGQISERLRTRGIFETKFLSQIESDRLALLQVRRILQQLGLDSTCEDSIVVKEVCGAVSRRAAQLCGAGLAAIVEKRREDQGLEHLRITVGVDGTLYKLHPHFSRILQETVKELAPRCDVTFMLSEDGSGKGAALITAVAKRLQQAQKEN

A word on the IC50: it is the concentration at which inhibition is half-maximal. What is called CC50 is the concentration at which the toxic effect on the cells reaches its halfway point. Regarding `Fc1ccc(-[n+]2nc(Nc3ccccc3)sc2-c2c(Cl)cccc2Cl)cc1`, the IC50 in [1] is 51.2 µM (active); in experiment [4] it was > 100 µM (active). Further, the CC50 in [2] is 23.2 µM (active); in experiment [3], 11.6 µM (active).

Usually EC50 stands for the concentration needed to bring the measured effect to its halfway point. With `O=C(C1=NN[C@@H]2C(=O)N(c3cccc(F)c3)C(=O)[C@H]12)c1ccc2ccccc2n1`, the EC50 in experiment [5] is 24.4 µM (inactive); in [6], 20.5 µM (inactive); in experiment [8], > 99 µM (inactive); in [9] it was > 99 µM (inactive). The CC50 in experiment [7] is > 99 µM (inactive).

Regarding `CCCCc1ccc2nc(NC(=O)c3ccco3)sc2c1`, the IC50 was 2 µM (active) in experiment [10]; 3.36 µM (active) in [11]; 2.95 µM (active) in experiment [12]; 4 µM (active) in experiment [13]; 3.3 µM (active) in experiment [14]; 1.8 µM (active) in [15]. The IC50 in experiment [16] was 2.89 µM (active); in experiment [17], 1.6 µM (active).

As to `O=C(O)c1ccccc1-c1c2cc(I)c(=O)c(I)c-2oc2c(I)c(O)c(I)cc12`, in experiment [18], the EC50 was 14.7 µM (inactive). For the same molecule, the IC50 in experiment [1] was 19.4 µM (active); in [19], 14.4 µM (active); in experiment [20] it was 1.89 µM (active); in [21] it was > 14.3 µM (inactive) and 35.7 µM (inactive).
